From patent publication US20250051762A1, “PLATFORM USING DNA-ENCODED SMALL MOLECULE LIBRARIES AND RNA SELECTION TO DESIGN SMALL MOLECULES THAT TARGET RNA” (University of Florida Research Foundation, Incorporated, priority 2021, published 2025)

Assays:
[1] = test system: fully paired RNA (loop mutated to a base pair); test: Binding affinity by MST, Cy5-labeled fully paired RNA
Method: Binding affinity measurements: Binding affinities were measured by microscale thermophoresis (MST), performed on a Monolith NT.115 system (NanoTemper Technologies) with Cy5-labeled RNAs. These RNAs include: the 5′GAG/3′CCC SEQ ID NO: 16 loop at pri-miR-27a's Drosha site (Sequence:/5′-Cy5/rCrUrGrArGrGrUrGrArArArCrArUrCrCrCrArG SEQ ID NO: 17; Dharmacon), a related internal loop not selected by 9. 5′CAG/3′GCC SEQ ID NO: 17 loop (Sequence:/5′-Cy5/rCrUrCrArGrGrUrGrArArArCrArUrCrCrGrArG SEQ ID NO: 16; Dharmacon), and an RNA in which the loop is mutated to a base pair (Sequence:/5-Cy5/rCrUrGrArGrGrUrGrArArArCrArUrCrUrCrArG SEQ ID NO: 16; Dharmacon).
Briefly, Cy5-labeled RNA (10 nM) was prepared in 1× Binding Buffer and folded by heating at 60° C. for 5 min and then slowly cooling to room temperature. After cooling, Tween-20 was added to a final concentration of 0.1% (v/v). Compound solutions were prepared separately in 20 μL of 1× Binding Buffer at a final concentration of 5 μM (1% (v/v) DMSO), followed by 1:1 serial dilutions in 1× Binding Buffer. RNA and compound solutions were then mixed 1:1 by volume to a total of 20 μL.
Samples were incubated for 20 min at room temperature and then loaded into premium capillaries (NanoTemper Tech, Cat #MO-K025). The following parameters were used for MST measurements: 5-20% LED power (adjusted to keep fluorescence intensity between 2000 and 8000), 80% MST power, Laser-On time=30 s, Laser-Off time=25 s. The resulting data were analyzed by calculating the change in thermophoresis as a function of compound concentration and fitted by Equation 1, a one site binding model, in NanoTemper Tech's MST analysis software to yield the dissociation constant (Kd):
(§1) Where F is the concentration of fluorescently labeled RNA; unbound and bound refer to the thermophoresis signal at completely unbound and bound state of RNA, respectively; c is the concentration of the compound; f (c) is the thermophoresis signal at compound concentration of c; and Kd is the dissociation constant.

[2] = target: pri-miR-27a; test: Competitive MST binding assay with unlabeled miR-27a precursor; set-up: species or system human; conditions: 100 nM compound, Cy5-labeled Drosha site model
Method: To measure the affinity of 9 for the 5′GAG/3′CCC loop in the context of pri-miR-27a, a competitive binding assay was used with a constant concentration of compound (100 nM) and the Cy5-labeled model of pri-miR-27a's Drosha site, and varying concentrations of unlabeled miR-27a precursor as reported by miRBase. (35) That is, the miR-27a precursor competes with the Cy5-labeled model of pri-miR-27a's Drosha site for binding 9. […] Thus, the compounds identified by using DEL-2DCS can bind avidly to biologically relevant RNA targets identified by Inforna.
For competitive binding assays, both WT and mutant pri-miR-27a RNAs were transcribed as previously described (see Table S6 for sequences). (11) The RNA was purified by gel electrophoresis and folded in 1× Binding Buffer at final concentration of 750 nM by heating at 60° C. for 5 min and then slowly cooling to room temperature. […] The resulting data were analyzed by SigmaPlot and fitted by Equation 2 to yield the competitive dissociation constant (Kd competitive).
as §1, with “where” for “Where”, “fluorescence-labeled” for “fluorescently labeled”, “refers” for “refer”, “c;” for “c; and”, “constant. […]” for “constant.”

C#CCN(CC(N)=O)C(=O)C[C@H](Cc1c[nH]c2ccccc12)NC(=O)[C@@H]1C[C@H](NC(=O)Cn2c(=O)[nH]c3ccccc3c2=O)CN1 [Compound 9]
saturable binding [1]: Saturable binding was not observed
Kd [2]: 40 ± 30 nM
